Key:
Assay in all cases: single sensillum recording, Drosophila empty neuron (ab3A)
Format in all cases: cell-based
MsexOR33 = target: T1, MsexOR33 (Manduca sexta, UniProt A0A0P1J430); conditions: odor dilutions 10^-7 to 10^-2 v/v on filter paper, 500 ms pulse
T1 construct: gene OR-33; full-length CDS from antennal RNA, UAS transgene (pUASTattB) in D. melanogaster ab3A empty neuron (delta-halo; DmelOr22a-Gal4); partner is endogenous fly Orco; with Odorant receptor coreceptor (Drosophila melanogaster, endogenous to the ab3A neuron)
T1 sequence (A0A0P1J430 entry or part of it, one chain of several): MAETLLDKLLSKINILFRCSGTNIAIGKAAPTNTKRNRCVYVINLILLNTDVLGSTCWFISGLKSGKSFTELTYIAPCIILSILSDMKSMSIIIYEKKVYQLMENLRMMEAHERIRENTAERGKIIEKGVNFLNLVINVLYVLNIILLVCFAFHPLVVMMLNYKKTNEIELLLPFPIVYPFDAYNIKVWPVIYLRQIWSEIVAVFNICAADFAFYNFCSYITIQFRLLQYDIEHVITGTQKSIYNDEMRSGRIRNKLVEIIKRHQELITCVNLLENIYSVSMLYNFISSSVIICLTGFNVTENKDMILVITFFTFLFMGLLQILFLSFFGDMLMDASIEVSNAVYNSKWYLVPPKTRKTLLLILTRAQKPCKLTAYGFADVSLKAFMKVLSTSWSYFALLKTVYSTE

MsexOR36 = target: T2, MsexOR36 (Manduca sexta, UniProt A0A0P1IVT0); conditions: odor dilution 10^-2 v/v on filter paper, 500 ms pulse
T2 construct: gene OR-36; full-length CDS (407 aa) from antennal RNA, UAS transgene (pUASTattB) in D. melanogaster ab3A empty neuron (delta-halo; DmelOr22a-Gal4); partner is endogenous fly Orco; with Odorant receptor coreceptor (Drosophila melanogaster, endogenous to the ab3A neuron)
T2 sequence (A0A0P1IVT0 1-407): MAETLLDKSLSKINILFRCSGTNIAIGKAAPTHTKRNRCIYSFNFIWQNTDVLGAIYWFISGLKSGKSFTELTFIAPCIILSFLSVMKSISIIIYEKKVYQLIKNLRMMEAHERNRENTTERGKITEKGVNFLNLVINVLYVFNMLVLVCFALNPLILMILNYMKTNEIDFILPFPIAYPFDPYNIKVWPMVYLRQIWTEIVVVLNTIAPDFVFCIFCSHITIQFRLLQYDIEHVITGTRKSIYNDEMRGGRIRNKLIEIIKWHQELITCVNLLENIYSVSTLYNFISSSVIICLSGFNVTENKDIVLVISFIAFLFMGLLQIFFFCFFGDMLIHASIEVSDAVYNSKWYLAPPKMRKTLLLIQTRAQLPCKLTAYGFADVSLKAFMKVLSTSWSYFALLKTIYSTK
T2 sequence (Q9VNB5 1-486 partner): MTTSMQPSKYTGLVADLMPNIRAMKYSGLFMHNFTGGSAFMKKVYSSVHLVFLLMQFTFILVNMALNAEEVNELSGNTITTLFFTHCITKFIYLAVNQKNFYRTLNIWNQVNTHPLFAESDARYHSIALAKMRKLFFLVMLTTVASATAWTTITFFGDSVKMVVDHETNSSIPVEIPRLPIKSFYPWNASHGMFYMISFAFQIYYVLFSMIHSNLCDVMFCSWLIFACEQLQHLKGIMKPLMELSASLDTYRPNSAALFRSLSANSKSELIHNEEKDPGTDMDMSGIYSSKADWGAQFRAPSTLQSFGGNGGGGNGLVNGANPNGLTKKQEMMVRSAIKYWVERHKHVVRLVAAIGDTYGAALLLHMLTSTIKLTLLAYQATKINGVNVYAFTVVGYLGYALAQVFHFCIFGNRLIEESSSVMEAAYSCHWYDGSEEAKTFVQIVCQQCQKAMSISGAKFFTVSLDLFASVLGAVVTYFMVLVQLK

MsexOR8 = target: T3, MsexOR8 (Manduca sexta, UniProt A0A0P1IW06); conditions: odor dilutions 10^-7 to 10^-2 v/v on filter paper, 500 ms pulse
T3 construct: gene OR-8; full-length CDS from antennal RNA, UAS transgene (pUASTattB) in D. melanogaster ab3A empty neuron (delta-halo; DmelOr22a-Gal4); partner is endogenous fly Orco; with Odorant receptor coreceptor (Drosophila melanogaster, endogenous to the ab3A neuron)
T3 sequence (A0A0P1IW06 1-407): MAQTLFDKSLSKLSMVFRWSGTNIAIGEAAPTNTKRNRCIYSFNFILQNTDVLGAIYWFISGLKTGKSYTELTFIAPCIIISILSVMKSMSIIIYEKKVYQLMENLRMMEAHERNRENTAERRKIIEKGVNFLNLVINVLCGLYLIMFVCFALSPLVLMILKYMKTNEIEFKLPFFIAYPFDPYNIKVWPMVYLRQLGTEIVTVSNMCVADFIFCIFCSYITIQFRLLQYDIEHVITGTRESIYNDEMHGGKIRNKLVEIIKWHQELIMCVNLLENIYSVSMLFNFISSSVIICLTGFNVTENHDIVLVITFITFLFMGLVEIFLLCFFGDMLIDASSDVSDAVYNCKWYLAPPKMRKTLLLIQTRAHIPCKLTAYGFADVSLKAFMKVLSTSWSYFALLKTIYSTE
T3 sequence (Q9VNB5 1-486 partner): T2 sequence (Q9VNB5 1-486 partner)

CCCCCCCCC=O [nonanal]
single sensillum recording, Drosophila empty neuron (ab3A) (MsexOR33): each responding to only one odorant: MsexOR33 (nonanal) and MsexOR8 (propyl valerate)

C=CC(C)=CCC=C(C)C [β-ocimene]
single sensillum recording, Drosophila empty neuron (ab3A) (MsexOR36): β-ocimene, which was detected only by MsexOR36

CCCCC(=O)OCCC [propyl valerate]
single sensillum recording, Drosophila empty neuron (ab3A) (MsexOR8): each responding to only one odorant: MsexOR33 (nonanal) and MsexOR8 (propyl valerate)

— PMC11617253, “Gene expansion in the hawkmoth Manduca sexta drives evolution of food-associated odorant receptors” (iScience, 2024)
